# Test results: patent US11802133B2, “Heterocyclic compounds as monoacylglycerol lipase inhibitors” (Hoffmann-La Roche Inc., priority 2018, dated 2023)
# Molecular target: MAGL (recombinant wild-type) (Homo sapiens (Human), UniProt Q99685)
# Test: 4-NPA assay: MAGL inhibitory activity by hydrolysis of 4-nitrophenylacetate (absorbance at 405 nm)
# Assay type: biochemical
# Conditions: measured in 4-NPA assay (footnote [a]); 1 nM MAGL, 300 μM 4-nitrophenylacetate
# Experimental: This assay is hereinafter abbreviated “4-NPA assay”.
# The plate was shaked for 1 min at 2000 rpm (Variomag Teleshake) and then incubated for 15 min at RT. […] The final concentrations in the assay were 1 nM MAGL and 300 μM 4-Nitrophenylacetate. […] A second measurement was then done after incubation for 80 min at RT. From the two measurements, the slope was calculated by subtracting the first from the second measurement.
# Sequence of MAGL (recombinant wild-type) (Q99685 whole entry, species assumed): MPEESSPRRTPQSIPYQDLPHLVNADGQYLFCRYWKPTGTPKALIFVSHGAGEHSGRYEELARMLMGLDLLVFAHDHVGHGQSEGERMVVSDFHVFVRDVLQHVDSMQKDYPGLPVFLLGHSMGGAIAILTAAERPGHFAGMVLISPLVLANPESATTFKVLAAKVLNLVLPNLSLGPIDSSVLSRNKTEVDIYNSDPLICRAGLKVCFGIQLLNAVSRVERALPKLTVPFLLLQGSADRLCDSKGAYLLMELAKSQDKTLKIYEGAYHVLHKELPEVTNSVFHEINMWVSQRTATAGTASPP
row,Compound,IC50 [µM]
1,"CC1C(OCc2ccc(C(F)(F)F)cc2)CN1C(=O)N1CC[C@@H]2OCC(=O)N[C@@H]2C1 (single isomer, unassigned) [Example 103]",0.005
2,"CC1C(OCc2ccc(C(F)(F)F)cc2)CN1C(=O)N1CC[C@@H]2OCC(=O)N[C@@H]2C1 (single isomer, unassigned) [Example 104]",0.451
3,"O=C1CO[C@@H]2CCN(C(=O)N3CCC(Cn4cc(C(F)(F)F)cn4)CC3)C[C@@H]2N1 (stereo in doubt) [Example 26, (4aS,8aR)-6-(4-((4-(Trifluoromethyl)-1H-pyrazol-1-yl)methyl)piperidine-1-carbonyl)hexahydro-2H-pyrido[4,3-b][1,4]oxazin-3(4H)-one]",0.684
4,"CC(C)(C)c1csc(CC2CCN(C(=O)N3CC[C@@H]4OCC(=O)N[C@@H]4C3)CC2)n1 [Example 1, (+)-(4aR,8aS)-6-(4-((4-(tert-Butyl)thiazol-2-yl)methyl)piperidine-1-carbonyl)hexahydro-2H-pyrido[4,3-b][1,4]oxazin-3(4H)-one]",0.04
5,CC(C)(C)c1coc(CC2CCN(C(=O)N3CC[C@@H]4OCC(=O)N[C@@H]4C3)CC2)n1 [Example 2],0.046
6,CC(C)(C)c1coc(CC2CCN(C(=O)N3CC[C@@H]4OCC(=O)N[C@@H]4C3)CC2)n1 [Example 4],0.092
7,CC(C)(C)c1csc(CC2CCN(C(=O)N3CC[C@H]4OCC(=O)N[C@H]4C3)CC2)n1 [Example 5],1.3
8,O=C1CO[C@H]2CCN(C(=O)N3CCC(COc4ccc(F)cc4Cl)CC3)C[C@H]2N1 [Example 7],0.011
9,O=C1CO[C@H]2CCN(C(=O)N3CCC(Cc4ccc(C(F)(F)F)cc4)CC3)C[C@H]2N1 [Example 8],0.013
10,O=C1CO[C@H]2CCN(C(=O)N3CCC(COc4ccc(Cl)cc4)CC3)C[C@H]2N1 [Example 9],0.035
11,O=C1CO[C@H]2CCN(C(=O)N3CCC(Cc4ccc(Cl)cc4)CC3)C[C@H]2N1 [Example 10],0.039
12,"O=C1CO[C@H]2CCN(C(=O)N3CCC(Oc4ccc(C(F)(F)F)cc4)CC3)C[C@H]2N1 [Example 12, (+)- or (−)-(4aR,8aS)-6-(4-(4-(Trifluoromethyl)phenoxy)piperidine-1-carbonyl)hexahydro-2H-pyrido[4,3-b][1,4]oxazin-3(4H)-one]",0.077
13,O=C1CO[C@H]2CCN(C(=O)N3CCC(Oc4ccc(C(F)(F)F)cc4)CC3)C[C@H]2N1 [Example 13],0.087
14,O=C1CO[C@H]2CCN(C(=O)N3CCC(Cc4ccc(C(F)(F)F)cc4)CC3)C[C@@H]2N1 [Example 14],0.191
15,O=C1CO[C@H]2CCN(C(=O)N3CCC(COc4ccccc4)CC3)C[C@H]2N1 [Example 15],0.19
16,O=C1CO[C@H]2CCN(C(=O)N3CCC(Cc4nc5c(s4)CCC5)CC3)C[C@H]2N1 [Example 16],0.208
17,O=C1CO[C@H]2CCN(C(=O)N3CCC(Cc4ccc(C(F)(F)F)cc4)CC3)C[C@@H]2N1 [Example 17],0.268
18,O=C1CO[C@H]2CCN(C(=O)N3CCC(Cc4nc(-c5ccccc5)no4)CC3)C[C@H]2N1 [Example 18],0.892
19,O=C1CO[C@@H]2CCN(C(=O)N3CCC(Cc4ccc(C(F)(F)F)cc4)CC3)C[C@H]2N1 [Example 19],1.5

row,Compound,IC50 [µM]
1,O=C1CO[C@@H]2CCN(C(=O)N3CCC(Cc4ccc(C(F)(F)F)cc4)CC3)C[C@@H]2N1 [Example 20],1.8
2,O=C1CO[C@H]2CCN(C(=O)N3CCN(Cc4ccc(Cl)cc4)CC3)C[C@H]2N1 [Example 22],2.1
3,O=C1CO[C@@H]2CCN(C(=O)N3CCC(COc4ccc(F)cc4Cl)CC3)C[C@@H]2N1 [Example 23],0.856
4,O=C1CO[C@H]2CCN(C(=O)N3CCC(COc4ccc(F)cc4Cl)CC3)C[C@H]2N1 [Example 24],0.004
5,O=C1CO[C@H]2CCN(C(=O)N3CCC(Cc4ccc(C(F)(F)F)cn4)CC3)C[C@H]2N1 [Example 25],0.452
6,O=C1CO[C@H]2CCN(C(=O)N3CC(OCc4ccc(C(F)(F)F)cc4F)C3)C[C@H]2N1 [Example 27],0.007
7,O=C1CO[C@H]2CCN(C(=O)N3CC(COc4ccc(F)cc4Cl)C3)C[C@H]2N1 [Example 28],0.018
8,O=C1CO[C@H]2CCN(C(=O)N3CC(OCc4ccc(C(F)(F)F)cc4F)C3)C[C@H]2N1 [Example 29],0.005
9,O=C1CO[C@@H]2CCN(C(=O)N3CC(OCc4ccc(C(F)(F)F)cc4F)C3)C[C@@H]2N1 [Example 30],0.273
10,O=C1CO[C@H]2CCN(C(=O)N3CCC(Cc4ccc(OC(F)(F)F)cc4)CC3)C[C@H]2N1 [Example 31],0.049
11,O=C1CO[C@H]2CCN(C(=O)N3CCC(COc4ccc(F)cc4F)CC3)C[C@H]2N1 [Example 32],0.02
12,O=C1CO[C@H]2CCN(C(=O)N3CCC(Cc4ccc(Cl)c(F)c4)CC3)C[C@H]2N1 [Example 33],0.004
13,"N#Cc1ccc(CC2CCN(C(=O)N3CC[C@@H]4OCC(=O)N[C@@H]4C3)CC2)cc1 [Example 34, (+)- or (−)-4-[[1-[(4aR,8aS)-3-Oxo-4,4a,5,7,8,8a-hexahydropyrido[4,3-b][1,4]oxazine-6-carbonyl]-4-piperidyl]methyl]benzonitrile]",0.438
14,O=C1CO[C@H]2CCN(C(=O)N3CCC(Cc4ccc(Cl)cc4)CC3)C[C@H]2N1 [Example 35],0.019
15,O=C1CO[C@H]2CCN(C(=O)N3CC(Cc4ccc(C(F)(F)F)cc4)C3)C[C@H]2N1 [Example 36],0.119
16,"O=C1CO[C@H]2CCN(C(=O)N3CCC(CN4CCC(F)(F)CC4)CC3)C[C@H]2N1 [Example 37, (4aR,8aS)-6-(4-((4,4-Difluoropiperidin-1-yl)methyl)piperidine-1-carbonyl)hexahydro-2H-pyrido[4,3-b][1,4]oxazin-3(4H)-one]",1.3
17,CC(C)(C)c1cnc(CC2CCN(C(=O)N3CC[C@@H]4OCC(=O)N[C@@H]4C3)CC2)o1 [Example 38],0.16
18,"COc1ccc(OCC2CCN(C(=O)N3CC[C@@H]4OCC(=O)N[C@@H]4C3)CC2)c(F)c1 [Example 39, (4aR,8aS)-6-[4-[(2-Fluoro-4-methoxyphenoxy)methyl]piperidine-1-carbonyl]-4,4a,5,7,8,8a-hexahydropyrido[4,3-b][1,4]oxazin-3-one]",0.116
19,O=C1CO[C@H]2CCN(C(=O)N3CCC(Oc4ccc(C(F)(F)F)cc4Cl)CC3)C[C@H]2N1 [Example 40],0.012

row,Compound,IC50 [µM]
1,"O=C1CO[C@@H]2CCN(C(=O)N3CCC(COc4ccc(C(F)(F)F)nc4)CC3)C[C@@H]2N1 [Example 42, (4aS,8aR)-6-(4-(((6-(Trifluoromethyl)pyridin-3-yl)oxy)methyl)piperidine-1-carbonyl)hexahydro-2H-pyrido[4,3-b][1,4]oxazin-3(4H)-one]",1.2
2,"O=C1CO[C@H]2CCN(C(=O)N3CCC(COc4ccc(C(F)(F)F)nc4)CC3)C[C@H]2N1 [Example 43, (4aR,8aS)-6-(4-(((6-(trifluoromethyl)pyridin-3-yl)oxy)methyl)piperidine-1-carbonyl)hexahydro-2H-pyrido[4,3-b][1,4]oxazin-3(4H)-one]",0.529
3,O=C1CO[C@H]2CCN(C(=O)N3CCC(Oc4cccc(C(F)(F)F)c4)CC3)C[C@H]2N1 [Example 44],0.038
4,O=C1CO[C@@H]2CCN(C(=O)N3CCC(COc4ccc(OC(F)(F)F)cc4Cl)CC3)C[C@@H]2N1 [Example 45],0.85
5,O=C1CO[C@H]2CCN(C(=O)N3CCC(COc4ccc(OC(F)(F)F)cc4Cl)CC3)C[C@H]2N1 [Example 46],0.005
6,O=C1CO[C@H]2CCN(C(=O)N3CC(COc4ccc(C(F)(F)F)cc4F)C3)C[C@H]2N1 [Example 47],0.005
7,CC1(COc2ccc(F)cc2Cl)CCN(C(=O)N2CC[C@H]3OCC(=O)N[C@H]3C2)CC1 [Example 48],0.288
8,O=C1CO[C@@H]2CCN(C(=O)N3CCC(COc4ccc(F)cc4F)CC3)C[C@@H]2N1 [Example 49],0.363
9,O=C1CO[C@H]2CCN(C(=O)N3CCC(COc4ccc(Cl)cc4F)CC3)C[C@H]2N1 [Example 50],0.008
10,O=C1CO[C@H]2CCN(C(=O)N3CCC(COc4ccc(F)cc4C(F)(F)F)CC3)C[C@H]2N1 [Example 51],0.01
11,O=C1CO[C@H]2CCN(C(=O)N3CCC(COc4ccc(C(F)(F)F)cc4F)CC3)C[C@H]2N1 [Example 52],0.058
12,O=C1CO[C@H]2CCN(C(=O)N3CCC(Cc4ccc(C(F)(F)F)cc4N4CCCC4)CC3)C[C@H]2N1 [Example 53],0.006
13,N#Cc1cc(F)ccc1OCC1CCN(C(=O)N2CC[C@@H]3OCC(=O)N[C@@H]3C2)CC1 [Example 55],0.079
14,O=C1CO[C@H]2CCN(C(=O)N3CCN(Cc4ccc(C(F)(F)F)cc4N4CCCC4)CC3)C[C@H]2N1 [Example 56],0.042
15,O=C1CO[C@H]2CCN(C(=O)N3CC(COc4ccc(F)cc4Cl)C3)C[C@H]2N1 [Example 57],0.049
16,O=C1CO[C@H]2CCN(C(=O)N3CCC(Cc4ccc(C(F)(F)F)cc4C4CCCC4)CC3)C[C@H]2N1 [Example 58],0.003
17,N#Cc1ccc(OCC2CCN(C(=O)N3CC[C@@H]4OCC(=O)N[C@@H]4C3)CC2)c(Cl)c1 [Example 59],0.012
18,O=C1CO[C@H]2CCN(C(=O)N3CCC(Cn4cnc(C(F)(F)F)c4)CC3)C[C@H]2N1 [Example 60],0.68
19,Cc1cc(F)ccc1OCC1CCN(C(=O)N2CC[C@@H]3OCC(=O)N[C@@H]3C2)CC1 [Example 61],0.011
